{"source": "the NIST ThermoML archive (doi:10.1016/j.tca.2008.11.005)", "conditions": "Liquid", "note": "± gives the expanded uncertainty stated by the source.", "data": [{"smiles": "CCO", "note": "[ethanol]", "values": [{"measurement": "vapor or sublimation pressure", "setting": "303.95 K", "result": "11.32 ± 4.3", "unit": "kPa"}, {"measurement": "vapor or sublimation pressure", "setting": "315.75 K", "result": "21.32 ± 4.7", "unit": "kPa"}, {"measurement": "vapor or sublimation pressure", "setting": "323.5 K", "result": "31.32 ± 5.1", "unit": "kPa"}, {"measurement": "vapor or sublimation pressure", "setting": "329.35 K", "result": "41.33 ± 5.5", "unit": "kPa"}, {"measurement": "vapor or sublimation pressure", "setting": "334.05 K", "result": "51.33 ± 5.9", "unit": "kPa"}, {"measurement": "vapor or sublimation pressure", "setting": "338.05 K", "result": "61.33 ± 6.3", "unit": "kPa"}, {"measurement": "vapor or sublimation pressure", "setting": "341.65 K", "result": "71.33 ± 6.7", "unit": "kPa"}, {"measurement": "vapor or sublimation pressure", "setting": "344.75 K", "result": "81.33 ± 7.1", "unit": "kPa"}, {"measurement": "vapor or sublimation pressure", "setting": "347.55 K", "result": "91.33 ± 7.5", "unit": "kPa"}, {"measurement": "vapor or sublimation pressure", "setting": "350.15 K", "result": "101.33 ± 7.9", "unit": "kPa"}]}, {"smiles": "C[SiH]1O[SiH](C)O[SiH](C)O[SiH](C)O[SiH](C)O1", "note": "(stereo not given) [2,4,6,8,10-pentamethylcyclopentasiloxane]", "values": [{"measurement": "vapor or sublimation pressure", "setting": "330.8 K", "result": 1.325, "unit": "kPa"}, {"measurement": "vapor or sublimation pressure", "setting": "348.03 K", "result": "3.325 ± 4", "unit": "kPa"}, {"measurement": "vapor or sublimation pressure", "setting": "357.45 K", "result": "5.325 ± 4.1", "unit": "kPa"}, {"measurement": "vapor or sublimation pressure", "setting": "364.75 K", "result": "7.325 ± 4.2", "unit": "kPa"}, {"measurement": "vapor or sublimation pressure", "setting": "370.73 K", "result": "9.325 ± 4.2", "unit": "kPa"}, {"measurement": "vapor or sublimation pressure", "setting": "375.49 K", "result": "11.32 ± 4.3", "unit": "kPa"}, {"measurement": "vapor or sublimation pressure", "setting": "378.23 K", "result": "13.32 ± 4.4", "unit": "kPa"}, {"measurement": "vapor or sublimation pressure", "setting": "381.78 K", "result": "15.32 ± 4.5", "unit": "kPa"}, {"measurement": "vapor or sublimation pressure", "setting": "385.02 K", "result": "17.32 ± 4.5", "unit": "kPa"}, {"measurement": "vapor or sublimation pressure", "setting": "387.96 K", "result": "19.32 ± 4.6", "unit": "kPa"}, {"measurement": "vapor or sublimation pressure", "setting": "390.75 K", "result": "21.32 ± 4.7", "unit": "kPa"}, {"measurement": "vapor or sublimation pressure", "setting": "393.18 K", "result": "23.32 ± 4.8", "unit": "kPa"}, {"measurement": "vapor or sublimation pressure", "setting": "395.46 K", "result": "25.32 ± 4.9", "unit": "kPa"}, {"measurement": "vapor or sublimation pressure", "setting": "397.89 K", "result": "27.32 ± 4.9", "unit": "kPa"}, {"measurement": "vapor or sublimation pressure", "setting": "399.92 K", "result": "29.32 ± 5", "unit": "kPa"}, {"measurement": "vapor or sublimation pressure", "setting": "401.9 K", "result": "31.32 ± 5.1", "unit": "kPa"}, {"measurement": "vapor or sublimation pressure", "setting": "403.77 K", "result": "33.33 ± 5.2", "unit": "kPa"}, {"measurement": "vapor or sublimation pressure", "setting": "405.7 K", "result": "35.33 ± 5.2", "unit": "kPa"}, {"measurement": "vapor or sublimation pressure", "setting": "407.22 K", "result": "37.33 ± 5.3", "unit": "kPa"}, {"measurement": "vapor or sublimation pressure", "setting": "408.94 K", "result": "39.33 ± 5.4", "unit": "kPa"}, {"measurement": "vapor or sublimation pressure", "setting": "410.46 K", "result": "41.33 ± 5.5", "unit": "kPa"}, {"measurement": "vapor or sublimation pressure", "setting": "411.98 K", "result": "43.33 ± 5.6", "unit": "kPa"}, {"measurement": "vapor or sublimation pressure", "setting": "413.4 K", "result": "45.33 ± 5.6", "unit": "kPa"}, {"measurement": "vapor or sublimation pressure", "setting": "414.87 K", "result": "47.33 ± 5.7", "unit": "kPa"}, {"measurement": "vapor or sublimation pressure", "setting": "416.19 K", "result": "49.33 ± 5.8", "unit": "kPa"}, {"measurement": "vapor or sublimation pressure", "setting": "417.55 K", "result": "51.33 ± 5.9", "unit": "kPa"}, {"measurement": "vapor or sublimation pressure", "setting": "423.53 K", "result": "61.33 ± 6.3", "unit": "kPa"}, {"measurement": "vapor or sublimation pressure", "setting": "429.06 K", "result": "71.33 ± 6.6", "unit": "kPa"}, {"measurement": "vapor or sublimation pressure", "setting": "433.77 K", "result": "81.33 ± 7", "unit": "kPa"}, {"measurement": "vapor or sublimation pressure", "setting": "437.93 K", "result": "91.33 ± 7.4", "unit": "kPa"}]}]}
